Experimental data published in US20070020193A1, “Dronabinol compositions and methods for using same” (priority 2005, published 2007).

Assay: Example 2 multiple rising dose inhaled delta-9-THC study: plasma pharmacokinetics
Method: A randomized, double-blind, placebo-controlled, multiple rising dose safety, tolerability, pharmacokinetic and pharmacodynamic study to assess two dose levels of inhaled delta-9-THC was conducted. Dose levels were studied in ascending order. Two consecutive groups (n=9/group) of healthy subjects were studied (Groups I and II). […] There was a lapse of at least 10 days between the groups for interim safety and pharmacokinetic analysis. Two dose levels were studied in ascending order. […] Subjects in each treatment Group (I or II) received single and multiple doses of inhaled delta-9-THC according to the following schedule:
For both dose levels, the first and the last dose of study drug was given under fasted conditions. Subjects were confined to the study site from the evening of Day −2 (Day 1 is the day of administration of the first dose of study drug) until the 120-hour blood sample following the final dose of study drug, resulting in an 18-day confinement period for subjects in Group I and a 25-day confinement period for Group II. Between the completion of Group I and the start of Group II, an interim safety and pharmacokinetic analysis was performed. Based on the results of the interim analyses, the dose level for investigation in Group II was determined.
Two MDI dosage strengths were used corresponding to the same formulations used in Example 1: one delivering 0.3 mg delta-9-THC (or placebo) per actuation and one delivering 1.2 mg delta-9-THC (or placebo) per actuation. The MDI consisted of a pressurized (via propellants) container and a metered-dose valve. The propellants provided the necessary force to expel the drug, and also acted as a solvent and diluent. The canister unit was provided within a mouthpiece (oral adapter), to expel an exact amount of drug, in the proper particle size distribution, upon each actuation. Two basic formulations containing 0.3 and 1.2 mg of delta-9-THC per 50 μL were developed with propellant 1,1,1,2 tetrafluoroethane 134a (HFA 134a), and ethanol as solvent. The formulations were made in accordance with the composition used in Example 1.
Whole blood samples were collected according to the assessment flowchart in EDTA tubes through venepuncture or indwelling catheter. Samples were immediately placed on ice and subsequently centrifuged within 30 minutes at 1,500 g for 10 minutes. Plasma was transferred into a 5 ml screw cap polypropylene tube, stoppered and stored at below minus 20° C. until transfer to the analytical laboratory for analysis. […] The measurement ranges were 0.05-30 ng/ml for delta-9-THC, 0.04-30 ng/ml for 11-OH-THC, and 0.25-10 ng/ml for THC-COOH.
For Example 2: The statistical analysis encompassed an exploratory analysis of the single and multiple dose pharmacokinetics and dose proportionality of two dose levels of inhaled delta-9-THC in healthy subjects. Descriptive statistics included number of subjects, mean, standard deviation, coefficient of variation (%) and geometric mean for all pharmacokinetic parameters.
The exploratory analysis was performed on the logarithms of the dose-normalized pharmacokinetic parameters AUC(0-inf), AUC(0-t), AUC(0-τ) and Cmax. Dose proportionality was tested both at single dose and at multiple dose (steady state) by comparing the dose groups for all pharmacokinetic parameters by an analysis of variance with dose as fixed effect.
Dose proportionality was tested by the contrast between the dose groups. For this contrast on the logarithmic scale, p-values were given. After anti-logarithmic transformation, the resultant ratios of geometric means and 90% confidence intervals were given.
Accumulation was tested by comparing the steady state values for AUC(0-τ) with the single dose values for AUC(0-τ) by a mixed model analysis of variance with dose and day (with levels single dose and steady state) as fixed effects and subject within dose as random effect.

SMILES: CCCCCc1cc(O)c2c(c1)OC(C)(C)C1CCC(C(=O)O)=CC21 (stereo not drawn) [THC-COOH, delta-9-tetrahydrocannbinol-carboxylic acid]
- achievement of steady state (1.2 mg delta-9-THC three times daily): lack of steady state
- Cmax, Geometric Mean (Range) (1.2 mg m.d. (three times daily), Day 12, Group I): 7.97 (6.03-10.9) ng/mL
- AUC(0-8), Arithmetic Mean (SD) (1.2 mg m.d., Day 12, Group I): 51.9 (14.7) ng · h/mL
- AUC(0-8), Geometric Mean (Range) (1.2 mg m.d., Day 12, Group I): 50.1 (34.1-69.8) ng · h/mL
- Cmax, Arithmetic Mean (SD) (1.2 mg m.d., Day 12, Group I): 8.15 (1.87) ng/mL
- tmax, Arithmetic Mean (SD) (1.2 mg m.d., Day 12, Group I): 0.86 (0.88) h
- tmax, median (range) (1.2 mg m.d., Day 12, Group I): 0.33 (0.25-2.00) h
- t½, Arithmetic Mean (SD) (1.2 mg m.d., Day 12, Group I): 32.1 (9.07) h
- t½, Geometric Mean (Range) (1.2 mg m.d., Day 12, Group I): 31.0 (23.2-43.8) h
- AUC(0-8), Arithmetic Mean (SD) (1.2 mg s.d., Day 1): 18.5 (3.85) ng · h/mL
- AUC(0-8), Geometric Mean (Range) (1.2 mg s.d., Day 1): 18.2 (13.0-24.2) ng · h/mL
- AUC(0-inf), Arithmetic Mean (SD) (1.2 mg s.d., Day 1): 83.6 (18.5) ng · h/mL
- AUC(0-inf), Geometric Mean (Range) (1.2 mg s.d., Day 1): 82.0 (60.5-110) ng · h/mL
- tmax, Arithmetic Mean (SD) (1.2 mg s.d., Day 1): 1.54 (0.75) h
- tmax, median (range) (1.2 mg s.d., Day 1): 2.00 (0.25-2.00) h
- t½, Arithmetic Mean (SD) (1.2 mg s.d., Day 1): 33.9 (12.8) h
- t½, Geometric Mean (Range) (1.2 mg s.d., Day 1): 32.0 (23.9-50.6) h
- Cmax, Arithmetic Mean (SD) (1.2 mg s.d., Day 1, plasma): 3.81 (0.56) ng/mL
- Cmax, Geometric Mean (Range) (1.2 mg s.d., Day 1, plasma): 3.77 (2.81-4.40) ng/mL
- Cmax, Geometric Mean (Range) (3.6 mg m.d. (three times daily), Day 19, Group II): 25.5 (13.2-45.0) ng/mL
- AUC(0-8), Arithmetic Mean (SD) (3.6 mg m.d., Day 19, Group II): 182 (97.5) ng · h/mL
- AUC(0-8), Geometric Mean (Range) (3.6 mg m.d., Day 19, Group II): 159 (75.5-317) ng · h/mL
- Cmax, Arithmetic Mean (SD) (3.6 mg m.d., Day 19, Group II): 28.1 (12.7) ng/mL
- tmax, Arithmetic Mean (SD) (3.6 mg m.d., Day 19, Group II): 1.03 (0.79) h
- tmax, median (range) (3.6 mg m.d., Day 19, Group II): 0.75 (0.33-2.00) h
- t½, Arithmetic Mean (SD) (3.6 mg m.d., Day 19, Group II): 39.6 (15.3) h
- t½, Geometric Mean (Range) (3.6 mg m.d., Day 19, Group II): 37.4 (24.0-62.3) h
- AUC(0-8), Arithmetic Mean (SD) (3.6 mg s.d., Day 1): 47.1 (17.5) ng · h/mL
- AUC(0-8), Geometric Mean (Range) (3.6 mg s.d., Day 1): 44.5 (30.2-74.4) ng · h/mL
- AUC(0-inf), Arithmetic Mean (SD) (3.6 mg s.d., Day 1): 172 (85.6) ng · h/mL
- AUC(0-inf), Geometric Mean (Range) (3.6 mg s.d., Day 1): 152 (64.8-283) ng · h/mL
- tmax, Arithmetic Mean (SD) (3.6 mg s.d., Day 1): 2.33 (0.52) h
- tmax, median (range) (3.6 mg s.d., Day 1): 2.00 (2.00-3.00) h
- t½, Arithmetic Mean (SD) (3.6 mg s.d., Day 1): 23.8 (11.3) h
- t½, Geometric Mean (Range) (3.6 mg s.d., Day 1): 21.7 (11.3-39.2) h
- Cmax, Arithmetic Mean (SD) (3.6 mg s.d., Day 1, plasma): 8.75 (3.16) ng/mL
- Cmax, Geometric Mean (Range) (3.6 mg s.d., Day 1, plasma): 8.34 (6.01-14.4) ng/mL
- achievement of steady state (3.6-mg dose level three times daily): achieved after seven or eight days of dosing
- accumulation during multiple dosing (8-hours dosing interval): accumulation occurred during multiple dosing
- Ratio AUC(0-8) m.d./AUC(0-8) s.d. (Accumulation factor), Mean (Group I, 1.2 mg): 2.90
- Ratio AUC(0-8) m.d./AUC(0-inf) s.d. (Linearity), Mean (Group I, 1.2 mg): 0.65
- Ratio AUC(0-8) m.d./AUC(0-8) s.d. (Accumulation factor), Mean (Group II, 3.6 mg): 3.92
- Ratio AUC(0-8) m.d./AUC(0-inf) s.d. (Linearity), Mean (Group II, 3.6 mg): 1.11
- dose proportionality: geometric mean ratio (3.6 mg:1.2 mg) of dose-normalized AUC(0-8) (90% confidence interval) (Multiple dose): 1.05 (0.65-1.71)
- dose proportionality: geometric mean ratio (3.6 mg:1.2 mg) of dose-normalized Cmax (90% confidence interval) (Multiple dose): 1.07 (0.71-1.60)
- dose proportionality: geometric mean ratio (3.6 mg:1.2 mg) of dose-normalized AUC(0-8) (90% confidence interval) (Single dose): 0.82 (0.60-1.11)
- dose proportionality: geometric mean ratio (3.6 mg:1.2 mg) of dose-normalized AUC(0-inf) (90% confidence interval) (Single dose): 0.62 (0.39-0.98)
- dose proportionality: geometric mean ratio (3.6 mg:1.2 mg) of dose-normalized AUC(0-t) (90% confidence interval) (Single dose): 0.61 (0.34-1.09)
- dose proportionality: geometric mean ratio (3.6 mg:1.2 mg) of dose-normalized Cmax (90% confidence interval) (Single dose): 0.74 (0.56-0.96)
- exposure, fold higher compared to the parent (after both single and multiple dose administration): approximately 10 fold
- Cmax, fold lower compared to the parent compound (after single dosing): 5 fold
- dose proportionality of pharmacokinetic parameters (after single or multiple dose administration): not found to deviate significantly
- plasma concentration-time curve, elimination profile (both dose levels): almost no distribution phase and a multi-phasic elimination phase
- time of peak plasma concentration (both dose levels, post-dose): between 15 minutes and 3 hours post-dose
- ratios of AUC(0-8) after multiple dosing versus AUC(0-inf) after single dose (linearity) (in vivo): did not deviate clearly or significantly from unity
- Cmax and AUC values versus dose (single and multiple dose administration, 1.2 and 3.6 mg): Dose-related increases
- Terminal elimination half-lives (summary estimate) (summary, best estimated after multiple dosing): ~30 h
